Data reported in US11932654B2, “Nimbolide analogs as anti-cancer agents and preparation thereof” (priority 2018, dated 2024).

How the values were obtained:
[1] = tested on: DU-145 prostate cancer cell line; test: In vitro anticancer activity, SRB assay, DU-145; assay type: cell-based; details: Homo sapiens, 48 h, NA = Not Active
Procedure: (§1) Cell culture: Human lung adenocarcinoma cell line (A549 cell line), pancreatic cancer cell line (Panc-1, Pan-02), prostate cancer cell line (DU145, PC3), Brest cancer cell line (MCF-7) was grown in DIEM (Dulbecco's modifications of eagle's medium with L-glutamine & 4.5 g/L glucose) supplemented with fetal bovine serum in a humidified atmosphere of a 5% CO2 at 37° C.
(§2) In vitro anticancer activity: Cells were harvested from exponential phase cultures by trypsinization, counted and plated in 96-well plate. Optimal seeding densities for different cell lines in each plate were 5000 cells per well. After 24 h cells were treated with \ the newly synthesized compound at a dose range of 0.1-100 μm final concentration. Thereafter, cells were allowed to grow for 48 h before determination of cell survival by the SRB assay. Then the cells were fixed with 10% cold trichloroacetic acid for 1 h at 4° C. After two washes with deionized water, fixed cells were stained with 50 μL of SRB solution (1% in acetic acid) for 30 min and subsequently washed twice with 1% acetic acid to remove unbound stain. The plates were left to dry at room temperature and bound stain was solubilized with 100 μL of 10 mM buffered Tris base for reading the […] at 540 nm.

p53 = test: Western blotting analysis on Panc-1 cell line, p53; assay type: cell-based; details: panc-1 cells, various concentrations, 24 h, Western blot
Procedure: Western blotting analysis of IM-1372-Kn-13 on Panc-1 cell line: The cells were lysed in RIPA buffer (50 mM-tris (PH-7.4), 150 Min-Nacl, 1%-NP-40, 0.1%-SDS, 0.5%-Sodium-deoxycholate, 1 mM EDTA, 5 mM NaF, 5 mM Na—O-vandate, 1 mM PMSF, Protease inhibitor cocktail. The lysates were cleared by centrifugation at […] and concentration of protein was estimated by bradford assay. For Western blot analysis, equivalent amount of protein was resolved in SDS-PAGE and then transferred to polyvinylidene difluoride ([…]) membrane. Ti avoid non specific binding of antibodies, the membranes were blocked using 3% BSA in TBS with 0.5% Tween (TBST) for 1 h at room temperature. The membranes were then incubated in primary antibody overnight at 4° C. After removing excess primary antibody bound to membranes, blots were incubated with secondary anti body. Then the signal emitted was captured using chemiluminescence substrate.

[2] = Biochemical analysis in acute toxicity studies; assay type: in vivo, mice
Procedure: Biochemical analysis: In acute toxicity experiment, blood samples were collected from all the animals 1 week after the last dose and mice were sacrificed by cervical decapitation. The obtained serum was analyzed in clinical chemistry for the assessment of liver function tests (LFT), activity of serum alkaline phosphatase (ALP), alanine aminotransferase (ALT), aspartate aminotransferase (AST), kidney function tests (RFT) (serum urea and creatinine). The same tests were performed for serum samples collected from three groups of tumor xenograft mice used for determining in vivo activity of test compound against pancreatic cancer. The measurement of these biochemical parameters was done in Clinical Biochemical analyzer (Tulip coralab 3000™).

[3] = tested on: PC3 prostate cancer cell line; test: In vitro anticancer activity, SRB assay, PC3; assay type: cell-based; details: 48 h, NA = Not Active
Procedure: as §1, §2

[4] = single IP dose 5 mg/kg body weight
[5] = single IP dose 10 mg/kg body weight
[6] = single IP dose 25 mg/kg body weight
[7] = single IP dose 50 mg/kg body weight

For COC(=O)C[C@H]1[C@]2(C)C3=C(C)[C@H](C4=CC5OC4C(C(=O)OC)=C5C(=O)OC)C[C@@H]3O[C@@H]2[C@@H]2OC(=O)[C@]3(C)C=CC(=O)[C@@]1(C)C23 (stereo partly drawn) [A4], the IC50 [1] was 0.58 µM, the “expression of p53 protein” value (p53) was “reduced” and the ALT [2, 4] was 48 U/L. For the same compound, the AST [2, 4] was 63 U/L, the BUN [2, 4] was 18 mg/dL and the Cholesterol [2, 4] was 175 mg/dL. It also gave a Creatinine [2, 4] of 0.4 mg/dL, a Glucose [2, 4] of 101 mg/dL and an ALT [2, 5] of 66 U/L. It also gave an AST [2, 5] of 66 U/L, a BUN [2, 5] of 21 mg/dL and a Cholesterol [2, 5] of 175 mg/dL. For the same compound, the Creatinine [2, 5] was 0.4 mg/dL, the Glucose [2, 5] was 100 mg/dL and the ALT [2, 6] was 67 U/L. The AST [2, 6] was 74.5 U/L, the BUN [2, 6] was 24.5 mg/dL and the Cholesterol [2, 6] was 163.5 mg/dL. For the same compound, the Creatinine [2, 6] was 0.35 mg/dL, the Glucose [2, 6] was 96 mg/dL and the ALT [2, 7] was 95 U/L. For the same compound, the AST [2, 7] was 128 U/L, the BUN [2, 7] was 29 mg/dL and the Cholesterol [2, 7] was 178 mg/dL. For the same compound, the Creatinine [2, 7] was 0.9 mg/dL, the Glucose [2, 7] was 102 mg/dL and the IC50 [3] was 1.4 µM.
